# According to patent US20090111736A1, “Orally-Absorbed Solid Dose Formulation for Vancomycin” (SRI International, priority 2007, published 2009):
# Structures can show the parent of a compound that is named as a salt.
# Tested on: rat jejunum
# Test: In vitro mucosal-to-serosal vancomycin transport, modified Ussing chambers, jejunum
# Type: in vitro ADME
# Settings: jejunum
# Description: We investigated regional variation in permeation of vancomycin (VCM) across various segments of rat intestine and colon in vitro by mounting isolated segments of rat intestine and colon between horizontal modified Ussing chambers. The effects of drug concentration and of addition of a p-glycoprotein inhibitor or permeation enhancer(s) as formulation additives on VCM permeation were also studied in vitro using segments of rat jejunum.
# Methods: A modified Ussing system (Easy mount Ussing system, Physiological Instruments Inc., CA, Item # EM-CSYS-8) with eight sets of chambers was used for all in vitro studies; each set consisted of two parallel diffusion chambers, a heating block for temperature control, needle valves for gas flow adjustment and gas mixing, and Ag/AgCl voltage and current electrodes for measuring transepithelial voltage and for passing current.
# Harvesting of required small intestinal or colon segments of a male rat was performed using experimental procedures described in the literature (Gotoh et al., J Biomol Screen (2005) 10:517-23). The harvested segments of small intestine or colon were mounted on sliders placed between the two horizontal chambers of a modified Ussing system.
# VCM was dissolved in HEPES buffer pH 7.4 (Table 1) previously saturated with 100% O2 or HEPES buffer containing additives selected from permeation enhancer(s) and/or an efflux transport inhibitor (Table 2) to obtain predetermined concentrations of drug and additive(s).
# Drug transport across epithelial membranes of harvested rat small intestine and colon segments, in mucosal-to-serosal (M-to-S) direction, was studied using modified Ussing Chambers. Aliquots of HEPES buffer (5 ml) were initially added to both the mucosal and serosal chambers and allowed to equilibrate for 20 minutes. The HEPES buffer in the mucosal chamber was replaced by a study sample containing VCM alone or VCM and selected additive(s) in HEPES buffer, e.g., 5 mg/mL of VCM dissolved in HEPES buffer containing 10% w/w Labrasol®. Aliquots of 0.5 mL buffer solutions were removed periodically from serosal chambers, and replaced with equal volumes of fresh warm (37±2° C.) HEPES buffer previously saturated with 100% O2. […]
# Changes in transepithelial short-circuit current (in micro-Amps) and membrane resistance (in Ohms) as a function of time were monitored continuously during in vitro studies to serve as indicators of tissue viability and drug permeability, respectively. The buffer samples from the receptor chambers were analyzed for VCM content on a high pressure liquid chromatograph (HPLC; Hewlett Packard Model 1100 series).
# The analysis of VCM samples was performed using a reverse phase gradient HPLC method, with a Hypersil BDS C18 column, 5 μm, 150×4.6 mm., mobile phase consisting of 5 mM potassium phosphate monobasic in water (pH 3) as solvent A and acetonitrile as solvent B at a flow rate of 1 ml/min (Farin et al., J Pharm Biomed Anal (1998) 18:367-72). The eluant was monitored by a UV/diode array detector at 280 nm.
# To compare data obtained from different in vitro experiments, the apparent permeability coefficients were calculated using the equation: […]
# Where dQ/dt is the linear appearance rate of mass in receiver compartment, C0 is the initial solute concentration in donor compartment, and A is the surface area (Luo et al., Drug Metab Dispos (2002) 30:763-70).
compound,measurement,setting,value
CN[C@H](CC(C)C)C(=O)N[C@H]1C(=O)N[C@@H](CC(N)=O)C(=O)N[C@H]2C(=O)N[C@H]3C(=O)N[C@H](C(=O)N[C@H](C(=O)O)c4cc(O)cc(O)c4-c4cc3ccc4O)[C@H](O)c3ccc(c(Cl)c3)Oc3cc2cc(c3O[C@@H]2O[C@H](CO)[C@@H](O)[C@H](O)[C@H]2O[C@H]2C[C@](C)(N)[C@H](O)[C@H](C)O2)Oc2ccc(cc2Cl)[C@H]1O [Vancomycin hydrochloride],Ave. Cumulative Amt VCM Released,"50 mg/ml in HEPES buffer without enhancer, 0.5 hr",0.97 ± 1.37 µg
same,Ave. Cumulative Amt VCM Released,"50 mg/ml in HEPES buffer without enhancer, 1.0 hr",7.94 ± 5.19 µg
same,Ave. Cumulative Amt VCM Released,"50 mg/ml in HEPES buffer without enhancer, 1.5 hr",22.26 ± 4.61 µg
same,Ave. Cumulative Amt VCM Released,"50 mg/ml in HEPES buffer without enhancer, 2.0 hr",46.13 ± 1.25 µg
same,Ave. Cumulative Amt VCM Released,"50 mg/ml in HEPES buffer without enhancer, 2.5 hr",69.54 ± 4.20 µg
same,Ave. Cumulative Amt VCM Released,"5% Gelucire ® 44/14 (w/w), 0.5 hr",0.40 ± 0.79 µg
same,Ave. Cumulative Amt VCM Released,"5% Gelucire ® 44/14 (w/w), 1.0 hr",3.72 ± 0.40 µg
same,Ave. Cumulative Amt VCM Released,"5% Gelucire ® 44/14 (w/w), 1.5 hr",6.81 ± 1.07 µg
same,Ave. Cumulative Amt VCM Released,"5% Gelucire ® 44/14 (w/w), 2.0 hr",10.87 ± 1.53 µg
same,Ave. Cumulative Amt VCM Released,"5% Gelucire ® 44/14 (w/w), 2.5 hr",14.29 ± 2.36 µg
same,Ave. Cumulative Amt VCM Released,"5% Gelucire ® 44/14 + 5% Labrasol ® (w/w), 0.5 hr",0.81 ± 1.40 µg
same,Ave. Cumulative Amt VCM Released,"5% Gelucire ® 44/14 + 5% Labrasol ® (w/w), 1.0 hr",3.56 ± 0.25 µg
same,Ave. Cumulative Amt VCM Released,"5% Gelucire ® 44/14 + 5% Labrasol ® (w/w), 1.5 hr",6.63 ± 1.67 µg
same,Ave. Cumulative Amt VCM Released,"5% Gelucire ® 44/14 + 5% Labrasol ® (w/w), 2.0 hr",9.58 ± 1.81 µg
same,Ave. Cumulative Amt VCM Released,"5% Gelucire ® 44/14 + 5% Labrasol ® (w/w), 2.5 hr",13.78 ± 5.10 µg
same,Ave. Cumulative Amt VCM Released,"5% Polysorbate-80 (w/w), 0.5 hr",0.00 ± 0.00 µg
same,Ave. Cumulative Amt VCM Released,"5% Polysorbate-80 (w/w), 1.0 hr",2.33 ± 0.24 µg
same,Ave. Cumulative Amt VCM Released,"5% Polysorbate-80 (w/w), 1.5 hr",5.69 ± 1.64 µg
same,Ave. Cumulative Amt VCM Released,"5% Polysorbate-80 (w/w), 2.0 hr",10.15 ± 2.82 µg
same,Ave. Cumulative Amt VCM Released,"5% Polysorbate-80 (w/w), 2.5 hr",15.99 ± 3.24 µg
same,Ave. Cumulative Amt VCM Released,"5% Polysorbate-80 + 5% w/w Labrasol ®, 0.5 hr",0.00 ± 0.00 µg
same,Ave. Cumulative Amt VCM Released,"5% Polysorbate-80 + 5% w/w Labrasol ®, 1.0 hr",2.36 ± 0.16 µg
same,Ave. Cumulative Amt VCM Released,"5% Polysorbate-80 + 5% w/w Labrasol ®, 1.5 hr",3.85 ± 0.39 µg
same,Ave. Cumulative Amt VCM Released,"5% Polysorbate-80 + 5% w/w Labrasol ®, 2.0 hr",6.05 ± 0.80 µg
same,Ave. Cumulative Amt VCM Released,"5% Polysorbate-80 + 5% w/w Labrasol ®, 2.5 hr",10.12 ± 1.39 µg
same,Ave. Cumulative Amt VCM Released,"5% TPGS ® + 5% Labrasol ® (w/w), 0.5 hr",0.00 ± 0.00 µg
same,Ave. Cumulative Amt VCM Released,"5% TPGS ® + 5% Labrasol ® (w/w), 1.0 hr",1.26 ± 1.78 µg
same,Ave. Cumulative Amt VCM Released,"5% TPGS ® + 5% Labrasol ® (w/w), 1.5 hr",3.48 ± 1.13 µg
same,Ave. Cumulative Amt VCM Released,"5% TPGS ® + 5% Labrasol ® (w/w), 2.0 hr",6.40 ± 2.08 µg
same,Ave. Cumulative Amt VCM Released,"5% TPGS ® + 5% Labrasol ® (w/w), 2.5 hr",10.03 ± 3.20 µg
same,Papp value compared with VCM alone,5% w/w Labrasol® with 5% w/w Gelucire® 44/14,slightly higher than that of VCM alone
same,effect on M-to-S transport of VCM,5% w/w Labrasol® with 5% w/w Polysorbate 80,slightly reduced VCM transport
same,effect on M-to-S transport of VCM,5% w/w Labrasol® with 5% w/w Vitamin E TPGS®,slightly reduced VCM transport
same,Ave. Cumulative Amt VCM Released,"10% Labrasol ® (w/w), 0.5 hr",3.65 ± 1.22 µg
same,Ave. Cumulative Amt VCM Released,"10% Labrasol ® (w/w), 1.0 hr",3.72 ± 2.58 µg
same,Ave. Cumulative Amt VCM Released,"10% Labrasol ® (w/w), 1.5 hr",5.52 ± 1.36 µg
same,Ave. Cumulative Amt VCM Released,"10% Labrasol ® (w/w), 2.0 hr",7.48 ± 1.11 µg
same,Ave. Cumulative Amt VCM Released,"10% Labrasol ® (w/w), 2.5 hr",9.93 ± 1.23 µg
same,VCM transport compared with VCM alone or other excipients,10% w/w Labrasol®,lowest
same,effect on M-to-S transport of VCM,Gelucire® 44/14 at 5% w/w,enhanced M-to-S transport
same,Ave. Cumulative Amt VCM Released,"HEPES only, no enhancer (enhancer / bile salt study), 0.5 hr",0.00 ± 0.00 µg
same,Ave. Cumulative Amt VCM Released,"HEPES only, no enhancer (enhancer / bile salt study), 1.0 hr",2.16 ± 1.47 µg
same,Ave. Cumulative Amt VCM Released,"HEPES only, no enhancer (enhancer / bile salt study), 1.5 hr",4.13 ± 0.74 µg
same,Ave. Cumulative Amt VCM Released,"HEPES only, no enhancer (enhancer / bile salt study), 2.0 hr",8.28 ± 1.80 µg
same,Ave. Cumulative Amt VCM Released,"HEPES only, no enhancer (enhancer / bile salt study), 2.5 hr",14.45 ± 3.07 µg
same,Ave. Cumulative Amt VCM Released,"No SD (sodium decanoate study), 0.5 hr",0.00 ± 0.00 µg
same,Ave. Cumulative Amt VCM Released,"No SD (sodium decanoate study), 1.0 hr",0.00 ± 0.00 µg
same,Ave. Cumulative Amt VCM Released,"No SD (sodium decanoate study), 1.5 hr",0.00 ± 0.00 µg
same,Ave. Cumulative Amt VCM Released,"No SD (sodium decanoate study), 2.0 hr",1.43 ± 0.10 µg
same,Ave. Cumulative Amt VCM Released,"No SD (sodium decanoate study), 2.5 hr",2.15 ± 0.19 µg
same,effect on M-to-S transport of VCM,Polysorbate 80 at 5% w/w,enhanced M-to-S transport
